How the values were obtained:
[1] = tested on: embryos placed in recipient animals; assay: Pre-treatment of embryos in recovery and/or freezing/transfer media before embryo transfer; assay type: in vivo, cattle
Experimental: Approximately 100 embryo recoveries are performed on day 7 after estrus in beef and dairy cows (lactating and dry). Cows are superovulated (Folltropin) and embryos recovered, evaluated, and frozen (1.5 M Ethylene Glycol; EG) as previously reported (Schrick et al., Biol. Reprod. 49:617-621 (1993)). Half of the embryo recoveries occur utilizing 1 L of each of the following alternative media preparations: 1) Embryo recovery (flush) media (CON, n=50 recoveries; Dulbecco's PBS+1% FCS; GibcoBRL, Cat.#21300-025; Grand Island, N.Y.) or 2) Embryo recovery (flush) media+AL-8810 (TRT, n=50 recoveries; 430 nM of AL-8810).
Following filtering, embryo dishes are searched, embryos removed (placed in Vigro), and evaluated for quality and development (IETS guidelines). […]
Over a two year period, recipient animals (dairy and beef cows and heifers; n=500) have estrus synchronized utilizing GnRH/CIDR/Estrumate protocol consisting of administration of 100 ug GnRH (Cysterolin; Merial) and CIDR (intravaginal progesterone releasing device; Pfizer) insertion on day 0, CIDR removal and injection of 2 mL Estrumate (Schering-Plough Animal Health) on day 7, and estrous detection (twice daily) from days 8 through 12. […] Embryos used for ET are thawed (10 sec air thaw; 30 sec in 25° C. water bath), straw labeling (embryo ID) information recorded, and recipient ID collected. […]

[2] = tested on: developmentally challenged bovine oocytes; assay: Maturation of developmentally challenged oocytes with a PGF2α antagonist, then fertilization; assay type: cell-based
Experimental: In a second study, bovine oocytes were obtained from ovaries of slaughtered cows. Oocytes that were developmentally challenged (development of oocyte to blastocyst less than 20%) were included in the study. The oocytes were matured for 24 hours in a standard maturation medium that either contained the PGF2α antagonist AL-8810 (treatment group) or that lacked the PGF2α antagonist (control group) and were then fertilized. Oocytes were observed on day 3 for the presence of cleavage and on day 9 for the presence of blastocyst development. The percentage of oocytes in that underwent cleavage and that developed into blastocysts was determined.

[3] = tested on: Pre-compacted 16- to 32-cell stage bovine embryos; details: 1000 nM AL-8810 + 1 ng/ml PGF, 48 h culture, assessed day 8
Experimental: Pre-compacted 16- to 32-cell stage bovine embryos (day 4 post fertilization) are washed in KSOM-PVA and divided into four groups, each of which is cultured for 48 hours in KSOM-PVA containing one of the following: (1) 1000 nM AL-8810, n=95 (AL-8810 group); (2) 1 ng/ml PGF, n=91 (PGF group); (3) 1000 nM AL-8810+1 ng/ml PGF, n=90 (AL-8810+PGF group); or (4) KSOM-PVA without AL-8810 or PGF, n=84 (Control group).
Following the 48 hour culture, embryos from each group are placed in HEPES-TALP and embryonic development is assessed by a technician who is uninformed of the treatments of the embryos in each group. Embryos from each treatment group are washed in KSOM-PVA and transferred to a 4-well plate with KSOM-PVA for further culture until day 8 post fertilization, when embryonic development is again assessed.

[4] = tested on: Pre-compacted 16- to 32-cell stage bovine embryos; assay: Dose response study of AL-8810 on embryo development; assay type: cell-based; details: 96 h
Experimental: Incubation conditions are 5.5% CO2, 7% O2, and 87.5% N2 at 38.5° C. The four groups are as follows: (1) KSOM-PVA+AL-8810 at 1000 nM, n=93 (High AL-8810 group); (2) KSOM-PVA+AL-8810 at 500 nM, n=95 (Medium AL-8810 group); (3) KSOM-PVA+AL-8810 at 250 nM, n=93 (Low AL-8810 group); and (4) KSOM-PVA with an equivalent volume of DMSO (dimethylsulfoxide) as used for the first three groups, n=95 (Control group).

[5] = tested on: bovine cumulus-oocyte-complexes; assay: Maturation of heat-stressed cumulus-oocyte-complexes with a PGF2α antagonist; assay type: cell-based; details: COC matured at 41.0° C. for first 12 h, AL-8810 at 250, 400 or 1000 nM; FIG. 1
Experimental: In a first study, bovine cumulus-oocyte-complexes were divided into three groups. Each of the three groups were matured for 24 hours under heat-stress conditions at 41.0° C. for 12 hours, followed by 38.5° C. for the remaining 12 hours. A first group, referred to as the development control group, was matured utilizing a standard maturation medium. A second group, referred to as the diluent control group, was matured under the same conditions utilizing the same standard maturation medium to which was added a diluent DMSO (dimethyl sulfoxide). A third group, referred to as the treatment group, was matured under the same conditions utilizing the same standard maturation medium to which was added the PGF2α antagonist AL-8810 at a concentration of 250, 400, or 1000 nM. To prepare the diluent control, DMSO was added to the OMM to yield the same concentration as would be contained in the PGF2α antagonist dose being tested (0.0025, 0.004 and 0.01% v/v final concentration for the 250, 400 and 1000 nM doses, respectively). The generalized linear mixed models (GLIMMIX) procedure of SAS version 9.1 (SAS Institute; Cary, N.C.; 2003) was used to perform analyses. Data are presented as least square means±the standard error of the mean. […]

[6] = oocytes matured 24 h with AL-8810, of those that cleaved

Question: Which results are given for O=C(O)CCC/C=C\CC1C(O)CC(F)C1/C=C/C(O)C1Cc2ccccc2C1 (stereo not drawn) [AL-8810, 11β-fluoro-15-epi-15-indanyl-tetranor PGF2α]?
Answer: pregnancy rates ([1]; AL-8810 (430 nM in flush media) in embryo recovery and/or freezing/transfer media): increases pregnancy rates; abnormalities in calves resulting from the pregnancies ([1]; embryos pre-treated with AL-8810 in media): No abnormalities are observed in the calves; deleterious or toxic effect on oocytes or developing embryos (stage and development of blastocysts) ([2]; oocytes matured 24 h with AL-8810): does not exert a deleterious or toxic effect; Cleaved (%) ([2]; oocytes matured 24 h with AL-8810, observed day 3): 60.4%; Blastocyst/PZ (%) ([2]; oocytes matured 24 h with AL-8810, observed day 9): 17.7%; 2-cell (%) [2, 6]: 7.2%; 4-cell (%) [2, 6]: 15.2%; 8 to 16-cell (%) [2, 6]: 76.7%; embryonic development in the presence of PGF [3]: decreases the negative effects of PGF on embryonic development; early embryonic development of pre-compacted embryos ([4]; AL-8810 at 250, 500 and 1000 nM, vs control group): does not decrease or increase early embryonic development; embryonic development ([4]; High AL-8810 group (1000 nM), vs 49.9+/-3.9% control, p<0.05): 60.3%+/−3.9; blastocyst development after heat stress [5]: the effect of heat stress to reduce blastocyst development was no longer observed
